# Data as given in patent US20220339143A1, “TAK-925 FOR USE IN TREATING NARCOLEPSY” (Takeda Pharmaceutical Company Limited, priority 2019, published 2022).
# Like-named read-outs stand apart in the source and are kept apart here.
# Test: Single dose PK in healthy subjects (Cohorts 1, 2, S1 and S2), plasma
# Format: in vivo, human
# Details: human, plasma, iv, healthy subjects
# Experimental: This study investigates (i) the safety and tolerability of Compound A (methyl (2R,3S)-3-((methylsulfonyl)amino)-2-(((cis-4-phenylcyclohexyl)oxy)methyl)piperidine-1-carboxylate) when a single dose given as a 9 hour continuous IV infusion is administered to healthy adults, healthy elderly subjects and patients with narcolepsy type 1 (NT1); (ii) the pharmacokinetics of Compound A when a single dose given as a 9 hour continuous IV infusion is administered to healthy adults, healthy elderly subjects and patients with narcolepsy type 1; and (iii) the pharmacodynamics (PD) effects of Compound A, primarily by evaluation of the sleep latency on MWT when a single dose given as a 9 hour continuous IV infusion is administered to patients with narcolepsy type 1.
# Pharmacokinetics: Concentrations of Compound A in plasma, and CSF, and pharmacokinetics parameters.
# On average, the time to reach the plateau appeared to be approximately 3 to 4 hours after the start of infusion. […] After switching off the IV infusion, Compound A plasma concentrations declined rapidly and in a biphasic manner with a mean terminal disposition phase t1/2z ranging approximately from 3.4 to 5.1 hours across all doses. […] Table 5 provides a summary of plasma concentrations of Compound A after a single IV infusion in healthy subjects. Table 6 provides a summary of pharmacokinetic parameters of Compound A after a single IV infusion in healthy subjects.
smiles,measurement,setting,value
"COC(=O)N1CCC[C@H](NS(C)(=O)=O)[C@@H]1CO[C@H]1CC[C@@H](c2ccccc2)CC1 [Compound A, methyl (2R,3S)-3-((methylsulfonyl)amino)-2-(((cis-4-phenylcyclohexyl)oxy)methyl)piperidine-1-carboxylate]",AUC(0-inf),"14 mg, 14 mg single IV infusion, read-out: AUCinf Median",322 ng·h/mL
same,AUC(0-t),"14 mg, 14 mg single IV infusion, read-out: AUClast Geo Mean",323 ng·h/mL
same,AUC(0-t),"14 mg, 14 mg single IV infusion, read-out: AUClast Mean",326 ng·h/mL
same,AUC(0-t),"14 mg, 14 mg single IV infusion, read-out: AUClast Median",322 ng·h/mL
same,clearance,"14 mg, 14 mg single IV infusion, read-out: CL Mean (converted)",718 mL/min
same,clearance,"14 mg, 14 mg single IV infusion, read-out: CL Median (converted)",723 mL/min
same,concentration at 9 h,"14 mg, 14 mg single IV infusion, read-out: Ceoi Geo Mean",29.8 ng/mL
same,concentration at 9 h,"14 mg, 14 mg single IV infusion, read-out: Ceoi Mean",30.1 ng/mL
same,concentration at 9 h,"14 mg, 14 mg single IV infusion, read-out: Ceoi Median",30.8 ng/mL
same,Cmax,"14 mg, 14 mg single IV infusion, read-out: Cmax Geo Mean",36.8 ng/mL
same,Cmax,"14 mg, 14 mg single IV infusion, read-out: Cmax Mean",37 ng/mL
same,Cmax,"14 mg, 14 mg single IV infusion, read-out: Cmax Median",37 ng/mL
same,Vd,"14 mg, 14 mg single IV infusion, read-out: Vss Mean",77.1 L
same,Vd,"14 mg, 14 mg single IV infusion, read-out: Vss Median",72.7 L
same,Vd,"14 mg, 14 mg single IV infusion, read-out: Vz Mean",272 L
same,Vd,"14 mg, 14 mg single IV infusion, read-out: Vz Median",253 L
same,Tmax,"14 mg, 14 mg single IV infusion, read-out: tmax Mean",3.67 h
same,Tmax,"14 mg, 14 mg single IV infusion, read-out: tmax Median",4 h
same,AUC,"28 mg, 28 mg single IV infusion, read-out: AUC24 Geo Mean",513 ng·h/mL
same,AUC,"28 mg, 28 mg single IV infusion, read-out: AUC24 Mean",519 ng·h/mL
same,AUC,"28 mg, 28 mg single IV infusion, read-out: AUC24 Median",543 ng·h/mL
same,AUC(0-inf),"28 mg, 28 mg single IV infusion, read-out: AUCinf Geo Mean",524 ng·h/mL
same,AUC(0-inf),"28 mg, 28 mg single IV infusion, read-out: AUCinf Mean",530 ng·h/mL
same,AUC(0-inf),"28 mg, 28 mg single IV infusion, read-out: AUCinf Median",549 ng·h/mL
same,AUC(0-t),"28 mg, 28 mg single IV infusion, read-out: AUClast Geo Mean",513 ng·h/mL
same,AUC(0-t),"28 mg, 28 mg single IV infusion, read-out: AUClast Mean",519 ng·h/mL
same,AUC(0-t),"28 mg, 28 mg single IV infusion, read-out: AUClast Median",543 ng·h/mL
same,clearance,"28 mg, 28 mg single IV infusion, read-out: CL Mean (converted)",903 mL/min
same,clearance,"28 mg, 28 mg single IV infusion, read-out: CL Median (converted)",850 mL/min
same,concentration at 9 h,"28 mg, 28 mg single IV infusion, read-out: Ceoi Geo Mean",52.1 ng/mL
same,concentration at 9 h,"28 mg, 28 mg single IV infusion, read-out: Ceoi Mean",52.5 ng/mL
same,concentration at 9 h,"28 mg, 28 mg single IV infusion, read-out: Ceoi Median",55.3 ng/mL
same,Cmax,"28 mg, 28 mg single IV infusion, read-out: Cmax Geo Mean",57.6 ng/mL
same,Cmax,"28 mg, 28 mg single IV infusion, read-out: Cmax Mean",58.1 ng/mL
same,Cmax,"28 mg, 28 mg single IV infusion, read-out: Cmax Median",59.3 ng/mL
same,Vd,"28 mg, 28 mg single IV infusion, read-out: Vss Mean",116 L
same,Vd,"28 mg, 28 mg single IV infusion, read-out: Vss Median",105 L
same,Vd,"28 mg, 28 mg single IV infusion, read-out: Vz Mean",392 L
same,Vd,"28 mg, 28 mg single IV infusion, read-out: Vz Median",406 L
same,Tmax,"28 mg, 28 mg single IV infusion, read-out: tmax Mean",3 h
same,Tmax,"28 mg, 28 mg single IV infusion, read-out: tmax Median",3 h
same,AUC,"56 mg, 56 mg single IV infusion, read-out: AUC24 Geo Mean",1060 ng·h/mL
same,AUC,"56 mg, 56 mg single IV infusion, read-out: AUC24 Mean",1070 ng·h/mL
same,AUC,"56 mg, 56 mg single IV infusion, read-out: AUC24 Median",1040 ng·h/mL
same,AUC(0-inf),"56 mg, 56 mg single IV infusion, read-out: AUCinf Geo Mean",1060 ng·h/mL
same,AUC(0-inf),"56 mg, 56 mg single IV infusion, read-out: AUCinf Mean",1080 ng·h/mL
same,AUC(0-inf),"56 mg, 56 mg single IV infusion, read-out: AUCinf Median",1050 ng·h/mL
same,AUC(0-t),"56 mg, 56 mg single IV infusion, read-out: AUClast Geo Mean",1060 ng·h/mL
same,AUC(0-t),"56 mg, 56 mg single IV infusion, read-out: AUClast Mean",1070 ng·h/mL
same,AUC(0-t),"56 mg, 56 mg single IV infusion, read-out: AUClast Median",1040 ng·h/mL
same,clearance,"56 mg, 56 mg single IV infusion, read-out: CL Mean (converted)",885 mL/min
same,clearance,"56 mg, 56 mg single IV infusion, read-out: CL Median (converted)",891 mL/min
same,concentration at 9 h,"56 mg, 56 mg single IV infusion, read-out: Ceoi Geo Mean",115 ng/mL
same,concentration at 9 h,"56 mg, 56 mg single IV infusion, read-out: Ceoi Mean",115 ng/mL
same,concentration at 9 h,"56 mg, 56 mg single IV infusion, read-out: Ceoi Median",112 ng/mL
same,Cmax,"56 mg, 56 mg single IV infusion, read-out: Cmax Geo Mean",123 ng/mL
same,Cmax,"56 mg, 56 mg single IV infusion, read-out: Cmax Mean",123 ng/mL
same,Cmax,"56 mg, 56 mg single IV infusion, read-out: Cmax Median",122 ng/mL
same,Vd,"56 mg, 56 mg single IV infusion, read-out: Vss Mean",91.4 L
same,Vd,"56 mg, 56 mg single IV infusion, read-out: Vss Median",89.1 L
same,Vd,"56 mg, 56 mg single IV infusion, read-out: Vz Mean",291 L
same,Vd,"56 mg, 56 mg single IV infusion, read-out: Vz Median",282 L
same,Tmax,"56 mg, 56 mg single IV infusion, read-out: tmax Mean",4.5 h
same,Tmax,"56 mg, 56 mg single IV infusion, read-out: tmax Median",4 h
same,AUC,"112 mg, 112 mg single IV infusion, read-out: AUC24 Geo Mean",2070 ng·h/mL
same,AUC,"112 mg, 112 mg single IV infusion, read-out: AUC24 Mean",2090 ng·h/mL
same,AUC,"112 mg, 112 mg single IV infusion, read-out: AUC24 Median",2130 ng·h/mL
same,AUC(0-inf),"112 mg, 112 mg single IV infusion, read-out: AUCinf Geo Mean",2090 ng·h/mL
same,AUC(0-inf),"112 mg, 112 mg single IV infusion, read-out: AUCinf Mean",2110 ng·h/mL
same,AUC(0-inf),"112 mg, 112 mg single IV infusion, read-out: AUCinf Median",2160 ng·h/mL
same,AUC(0-t),"112 mg, 112 mg single IV infusion, read-out: AUClast Geo Mean",2070 ng·h/mL
same,AUC(0-t),"112 mg, 112 mg single IV infusion, read-out: AUClast Mean",2090 ng·h/mL
same,AUC(0-t),"112 mg, 112 mg single IV infusion, read-out: AUClast Median",2130 ng·h/mL
same,clearance,"112 mg, 112 mg single IV infusion, read-out: CL Mean (converted)",902 mL/min
same,clearance,"112 mg, 112 mg single IV infusion, read-out: CL Median (converted)",867 mL/min
same,concentration at 9 h,"112 mg, 112 mg single IV infusion, read-out: Ceoi Geo Mean",214 ng/mL
same,concentration at 9 h,"112 mg, 112 mg single IV infusion, read-out: Ceoi Mean",216 ng/mL
same,concentration at 9 h,"112 mg, 112 mg single IV infusion, read-out: Ceoi Median",221 ng/mL
same,Cmax,"112 mg, 112 mg single IV infusion, read-out: Cmax Geo Mean",235 ng/mL
same,Cmax,"112 mg, 112 mg single IV infusion, read-out: Cmax Mean",238 ng/mL
same,Cmax,"112 mg, 112 mg single IV infusion, read-out: Cmax Median",250 ng/mL
same,Vd,"112 mg, 112 mg single IV infusion, read-out: Vss Mean",97.8 L
same,Vd,"112 mg, 112 mg single IV infusion, read-out: Vss Median",104 L
same,Vd,"112 mg, 112 mg single IV infusion, read-out: Vz Mean",289 L
same,Vd,"112 mg, 112 mg single IV infusion, read-out: Vz Median",301 L
same,Tmax,"112 mg, 112 mg single IV infusion, read-out: tmax Mean",4.25 h
same,Tmax,"112 mg, 112 mg single IV infusion, read-out: tmax Median",4 h
same,AUC,"134.4 mg, 134.4 mg single IV infusion, read-out: AUC24 Geo Mean",2660 ng·h/mL
same,AUC,"134.4 mg, 134.4 mg single IV infusion, read-out: AUC24 Mean",2690 ng·h/mL
same,AUC,"134.4 mg, 134.4 mg single IV infusion, read-out: AUC24 Median",2670 ng·h/mL
same,AUC(0-inf),"134.4 mg, 134.4 mg single IV infusion, read-out: AUCinf Geo Mean",2680 ng·h/mL
same,AUC(0-inf),"134.4 mg, 134.4 mg single IV infusion, read-out: AUCinf Mean",2720 ng·h/mL
same,AUC(0-inf),"134.4 mg, 134.4 mg single IV infusion, read-out: AUCinf Median",2680 ng·h/mL
same,AUC(0-t),"134.4 mg, 134.4 mg single IV infusion, read-out: AUClast Geo Mean",2660 ng·h/mL
same,AUC(0-t),"134.4 mg, 134.4 mg single IV infusion, read-out: AUClast Mean",2690 ng·h/mL
same,AUC(0-t),"134.4 mg, 134.4 mg single IV infusion, read-out: AUClast Median",2670 ng·h/mL
same,clearance,"134.4 mg, 134.4 mg single IV infusion, read-out: CL Mean (converted)",848 mL/min
same,clearance,"134.4 mg, 134.4 mg single IV infusion, read-out: CL Median (converted)",839 mL/min
same,concentration at 9 h,"134.4 mg, 134.4 mg single IV infusion, read-out: Ceoi Geo Mean",290 ng/mL
same,concentration at 9 h,"134.4 mg, 134.4 mg single IV infusion, read-out: Ceoi Mean",292 ng/mL
same,concentration at 9 h,"134.4 mg, 134.4 mg single IV infusion, read-out: Ceoi Median",300 ng/mL
